Where “and” joins values, the source holds several entries; their conditions need not be identical. Equal values may be shown once. Blank lines part the entries; values can stand above or below the compound they belong to. Where no end group is shown, it is not given here.
Key:
Bcl-2 1863 = experiment: MTS viability assay, Bcl-2 1863; assay type: cell-based; conditions: Bcl-2 primed cells (Bcl-2 1863)
Mcl-1 1780 [1] = experiment: MTS viability assay, Mcl-1 1780; assay type: cell-based; conditions: for IC50: Mcl1-1780, Mcl-1 1780, 48 hours
Method: (§1) The mitochondrial profiling assay was carried out in three steps: (1) cell preparation and counting, (2) cell permeabilization and peptide treatment, and (3) fluorescent readout (FIG. 1). Cells are suspended in Mitochondria loading Buffer with 0.005% digitonin, loaded with the cationic dye JC-1 (1 μM), and treated with 100 μM of one of the BH3 domain peptides: Bim, Bad, Noxa, and Puma. MOMP is followed by full mitochondrial membrane depolarization (ΔΨm), which is measured by treating the cells with the ionophore FCCP (p-trifluoromethoxy carbonyl cyanide phenyl hydrazone). Peptide (and FCCP) addition results in a decrease in membrane potential in suitably primed cells and is measured as a decrease in JC-1 fluorescence in a 384 well plate on a TecanGenios plate reader using an excitation of 535 nm and an emission of 590 nm.
(§2) Tables 3 and 4 show the percent priming of various cell lines, as determined by measuring the signal intensity of the JC-1 dye which is an indicator of mitochondrial depolarization. […] Viability was measured using an MTS assay. The IC50 is in μM.

DHL10 = experiment: MTS viability assay, DHL10; assay type: cell-based; conditions: for IC50: DHL10 (Bax/Bak deficient), 48 hours
Method: as §1, §2

DHL6 [2] = experiment: MTS viability assay, DHL6; assay type: cell-based; conditions: DHL6, 48 hours
Method: as §1, §2

LPN3 [3] = experiment: MTS viability assay, LPN3; assay type: cell-based; conditions: LPN3, 48 hours
Method: as §1, §2

NCI-H929 [4] = experiment: MTS viability assay, NCI-H929; assay type: cell-based; conditions: Homo sapiens; NCI-H929, 48 hours
Method: as §1, §2

OPM2/Luciferase cells = experiment: Tumor burden by bioluminescence imaging in xenografted mice; assay type: in vivo; conditions: OPM2/Luciferase xenograft in SCID mice, velcade 1 mpk IV 3×/week, compared with vehicle-only
Method: Mice were injected with 75 mg/kg D-luciferin, anesthetized, and imaged 10 minutes after substrate injection. Total body luminescence was determined using a standardized region of interest encompassing the entire mouse using the Living Images software package (Caliper Life Sciences).
OPM2/Luciferase cells were transferred to SCID mice and allowed to reach tumor burden. Xenografted mice were treated with EU-5148 (20 mpk IV, 3×/week), velcade for (1 mpk IV, 3×/week), or a combination of these treatments. […] The combination treatment of EU-5148 with Velcade results in 92% reduction in tumor cell burden over same time period.

multiple myeloma = experiment: Patient M-protein (M-spike) response to Velcade/Bortezomib treatment; assay type: in vivo, human; set-up: key to Δ M-Spike: % decrease in M-protein over treatment period; conditions: for Δ M-Spike: Velcade/Bortezomib combination regimen
Text: To date, we have obtained Mitochondrial profiles from 14 multiple myeloma or plasma cell leukemia patients. Each of the samples tested came from patients treated with one of several different Velcade/Bortezomib combination regimens. The samples listed in Table 5 are viably frozen from a tissue bank or from fresh bone marrow delivered within a few hours of the biopsy. CD138 cells are purified from either source using two similar procedures that have been optimized for each respective tissue type. Profiles on frozen cells are performed immediately following purification. Profiles on fresh cells are performed immediately or on viably frozen CD138 positive cells. […] M-protein is an indication of myeloma activity and is widely used diagnostic marker of the severity of the disease. The patient M-protein response is converted to a percentage of the best response seen among the group of patients tested. The M-spike response is calculated as a percent decrease in M-protein over a given treatment period. […] The percent decrease is calculated with the following equation. The percent best response is used to normalize the data to a fixed scale where 100% is the best response and 0% is the worst response. It is calculated with the equation below. Cancer cells collected from a patient undergoing Velcade based treatment were mitochondrial profiled at three time points during the course of treatment (October 2010, January 2011, and May 2011). The profile was used to monitor the apoptotic predisposition of the CD-138 positive MM cells during treatment.

DHL6 [5] = experiment: Mitochondrial profiling assay (JC-1), DHL6; assay type: cell-based; conditions: DHL6, percent priming, JC-1, 100 μM peptide
Method: as §1, §2

LPN3 [6] = experiment: Mitochondrial profiling assay (JC-1), LPN3; assay type: cell-based; conditions: LPN3, percent priming, JC-1, 100 μM peptide
Method: as §1, §2

NCI-H929 [7] = experiment: Mitochondrial profiling assay (JC-1), NCI-H929; assay type: cell-based; conditions: NCI-H929, percent priming, JC-1, 100 μM peptide
Method: as §1, §2

Mcl-1 1780 [8] = experiment: Mitochondrial profiling assay (JC-1), Mcl-1 1780; assay type: cell-based; conditions: Mcl-1 1780, percent priming, JC-1, 100 μM peptide
Method: as §1, §2

BCL-2 = BCL-2 (Homo sapiens, UniProt P10415); experiment: BH3 domain binding affinities to BCL-2
BCL-XL = BCL-XL (Homo sapiens, UniProt Q07817); experiment: BH3 domain binding affinities to BCL-XL
BCL-XL, sequence (Q07817 whole entry, the tested form may be a part): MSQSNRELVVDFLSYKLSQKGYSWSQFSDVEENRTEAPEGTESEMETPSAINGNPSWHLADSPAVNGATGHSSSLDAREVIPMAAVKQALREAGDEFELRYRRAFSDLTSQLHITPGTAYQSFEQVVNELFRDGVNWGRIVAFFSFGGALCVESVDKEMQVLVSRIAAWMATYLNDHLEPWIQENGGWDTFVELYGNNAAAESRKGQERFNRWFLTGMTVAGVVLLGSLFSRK

BCL-2, sequence (P10415 whole entry, the tested form may be a part): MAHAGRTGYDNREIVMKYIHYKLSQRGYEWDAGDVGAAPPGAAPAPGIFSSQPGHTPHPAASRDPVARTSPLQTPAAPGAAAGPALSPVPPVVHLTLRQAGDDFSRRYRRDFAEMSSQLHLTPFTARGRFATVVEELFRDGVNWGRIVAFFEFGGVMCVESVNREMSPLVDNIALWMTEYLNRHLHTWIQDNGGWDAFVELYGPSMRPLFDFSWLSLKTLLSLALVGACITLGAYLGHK

IC50 (NCI-H929 [4]): 4000 nM
Compound: CC1(C)CCC(c2ccc(Cl)cc2)=C(CN2CCN(c3ccc(C(=O)NS(=O)(=O)c4ccc(N[C@H](CCN5CCOCC5)CSc5ccccc5)c(S(=O)(=O)C(F)(F)F)c4)cc3)CC2)C1 [ABT-263, Navitoclax]
cell-killing activity (in words) (Bcl-2 1863): effective
IC50 (Mcl-1 1780 [1]): 17000 nM
cell-killing activity (in words) (Mcl-1 1780 [1]; Mcl-1 primed cells (Mcl-1 1780)): ineffective
IC50 (DHL10): > 25000 nM
cell-killing activity (in words) (DHL10; DHL-10 cells deficient in the Bax-Bak proteins): not responsive
IC50 (DHL6 [2]): < 1000 nM
IC50 (LPN3 [3]): 4100 nM

IC50 (NCI-H929 [4]): 1000 nM
Compound: COC1=CC(c2cc3ccccc3[nH]2)=N/C1=C\c1[nH]c(C)cc1C [Obatoclax]
IC50 (Mcl-1 1780 [1]): 1500 nM
IC50 (DHL10): 800 nM
IC50 (DHL6 [2]): 1200 nM

Compound: CC(C)C[C@H](NC(=O)[C@H](Cc1ccccc1)NC(=O)c1cnccn1)B(O)O [Velcade, Bortezomib]
mean tumor burden reduction (in words) (OPM2/Luciferase cells): mean tumor burden reduction was observed
Δ M-Spike (multiple myeloma; Patient No. 3039T): 64.71
Δ M-Spike (multiple myeloma; Patient No. 3098T): 62.50
Δ M-Spike (multiple myeloma; Patient No. 3161T): 12.90
Δ M-Spike (multiple myeloma; Patient No. 3187T): 65.22
Δ M-Spike (multiple myeloma; Patient No. 3188T): 93.03
Δ M-Spike (multiple myeloma; Patient No. 3191T): 57.69
Δ M-Spike (multiple myeloma; Patient No. 3201T): 87.50
Δ M-Spike (multiple myeloma; Patient No. 3213T): −10.00
Δ M-Spike (multiple myeloma; Patient No. 3221T): 52.38
M-Spike (multiple myeloma; TB# 3098T2, Jan. 27, 2011, patient undergoing Velcade based treatment): 0.8 g/dL
M-Spike (multiple myeloma; TB# 3098T3, May 5, 2011, patient undergoing Velcade based treatment): 0.3 g/dL
M-Spike (multiple myeloma; TB# 3098T, Oct. 13, 2010, patient undergoing Velcade based treatment): 1.7 g/dL

Compound: AELPPEFAAQLRKIGDKVYC [NOXA BH3, BH3 domain peptide]
Mcl-1 Priming State (NOXA Signal) (DHL6 [5]): 18 (LOW) %
Mcl-1 Priming State (NOXA Signal) (LPN3 [6]): 58 (HIGH) %
Mcl-1 Priming State (NOXA Signal) (NCI-H929 [7]): 74 (HIGH) %
Mcl-1 Priming State (NOXA Signal) (Mcl-1 1780 [8]): 75 (HIGH) % and 71 (HIGH) %

Kd (BCL-2): 11 nM
Kd (BCL-XL): < 10 nM
Compound: NLWAAQRYGRELRRMSDEFVDSFK [BAD BH3]

— patent US20190257816A1, “DIFFERENTIAL BH3 MITOCHONDRIAL PROFILING” (Eutropics Pharmaceuticals, Inc., priority 2013, published 2019)
